In patent US20260373186A1 (Mireca Medicines GmbH, priority 2022, published 2026):
Where a name gives a salt, the structure may show the parent alone. Read-outs that look alike come from different tables or passages of the source. Values belong to the compound of their own block, whether it stands above or below them.

Assays:
[1] = In vitro drug release from Compound 188-loaded microparticles; type: physicochemical; conditions: 99% PLGA75125 4A and 1% PLGA5050-PEG5K, PBS with 1% Tween 20, 37 °C
[2] = Drug loading of Compound 188-loaded microparticles (HPLC); type: physicochemical; conditions: 99% PLGA75125 4A and 1% PLGA5050-PEG5K
[3] = In vitro drug release from Compound 221-loaded microparticles; conditions: 99% PLGA75125 4A and 1% PLGA5050-PEG5K, PBS with 1% Tween 20, 37 °C
[4] = Drug loading of Compound 221-loaded implants (HPLC); type: physicochemical; conditions: implants (hot melt extrusion), 99% PLGA75125 4A and 1% PLGA5050-PEG5K
Method: (§1) Compound 221 and biodegradable polymer excipients including PLGA and PLGA-PEG were weighed and thoroughly premixed in a sealed container. The powder blend was fed into an extruder (HAAKE Twin Screw Compounder, Thermo Fisher Scientific), which was pre-set to a temperature of 80-90 °C and a screw speed of 150 rpm. The blend was heated in the extruder and recirculated in the extruder chamber through an internal loop channel for a pre-set duration (e.g., 2-30 min). The filament was extruded at pre-set screw speed (e.g, 10-300 rpm) through a die, guided by a conveying belt and cut into desired length (3-10 mm) for further testing.
(§2) The drug loading of the implants was quantitated by HPLC.

[5] = Drug loading of Compound 221-loaded microparticles (HPLC); conditions: 99% PLGA75125 4A and 1% PLGA5050-PEG5K
[6] = In vitro drug release from Compound 221-loaded implants; type: physicochemical; conditions: implants (hot melt extrusion), 99% PLGA75125 4A and 1% PLGA5050-PEG5K; PBS with 1% Tween 20, 37 °C
Method: as §1, §2

[7] = test system: cGMP dependent protein kinase; conditions: cited from earlier work
[8] = test system: photoreceptors of rd1 explants; test: Photoreceptor cell death in rd1 retinal explants (TUNEL); type: cell-based; conditions: Mus musculus
Source text: Legend: The animals at the age of postnatal day 5 (PN5) were killed by decapitation and retinas were dissected out with retinal pigment epithelium attached as described previously (Caffe, A. R.; Ahuja, P.; Holmqvist, B.; Azadi, S.; Forsell, J.; Holmqvist, I.; Soderpalm, A. K.; van Veen, T., Mouse retina explants after long-term culture in serum free medium. J Chem Neuroanat 2001, 22 (4), 263-73). The retinas were flattened out on the membranes of commercially available 6-well culture inserts, after which 1.5 ml of a custom made culturing medium was added to each well. These explants were then kept in culture for two days without any treatment after which the test analog of the invention at the desired concentration was added at a medium change at PN7 (“7” in Figure). […]
Legend: Effects of selected analogs at given concentrations of the invention on the cell death of photoreceptors of rd1 explants. The cell death was assessed by so called TUNEL stain on fixated and sectioned material, after which the number of dying cells was counted and analyzed, and compared with that from untreated rd1 explants. In order to allow more direct comparisons between the different analogs and concentrations a ratio of treated/untreated specimens was calculated. […]

[9] = test system: rd1 and rd2 photoreceptors; conditions: in vivo mouse retinitis pigmentosa models; cited from earlier work
[10] = test system: rd1 and rd2 photoreceptors; conditions: in vitro; cited from earlier work

Release duration: % released in 49 days ([1]; target drug loading 20%, in 49 days): 32% released
Compound 188 loading (w/w) ([2]; target drug loading 20%): 19.6%
Structure (SMILES): Cc1ccc(-c2cn3c(=O)c4nc(Br)n([C@@H]5O[C@@H]6CO[P@@](=O)(S)O[C@H]6[C@H]5O)c4nc3[nH]2)cc1 [Compound 188-BEZ, 8-bromo-(4-methyl-β-phenyl-1,N^2-etheno)guanosine-3′,5′-cyclic monophosphorothioate, Rp-isomer, N-benzyl-2-(benzylamino)ethan-1-aminium salt]

Structure (SMILES): O=c1c2nc(Br)n([C@@H]3O[C@@H]4CO[P@@](=O)(S)O[C@H]4[C@H]3O)c2nc2[nH]c(-c3ccccc3)cn12 [Compound 221-TEA]
Release duration ([3]; target drug loading 10%): 35 days
Compound 221 loading (w/w) [4]: 15.75%
Compound 221 loading (w/w) ([5]; target drug loading 10%): 1.8%
Release duration [6]: 40 days

Structure (SMILES): O=c1c2nc(Br)n([C@@H]3O[C@@H]4CO[P@@](=O)(S)O[C@H]4[C@H]3O)c2nc2[nH]c(-c3ccccc3)cn12 [Compound 221-BEN, 8-bromo-(β-phenyl-1,N^2-etheno)guanosine-3′,5′-cyclic monophosphorothioate, Rp-isomer, N-benzyl-2-phenylethan-1-aminium salt]
Release duration ([3]; target drug loading 30%): 43 days
Compound 221 loading (w/w) [4]: 30.0%
Compound 221 loading (w/w) ([5]; target drug loading 30%): 22.5%
Release duration [6]: 40 days

Release duration ([1]; target drug loading 30%): 29 days
Compound 188 loading (w/w) ([2]; target drug loading 30%): 26%
Structure (SMILES): Cc1ccc(-c2cn3c(=O)c4nc(Br)n([C@@H]5O[C@@H]6CO[P@@](=O)(S)O[C@H]6[C@H]5O)c4nc3[nH]2)cc1 [Compound 188-BEN, 8-bromo-(4-methyl-β-phenyl-1,N^2-etheno)guanosine-3′,5′-cyclic monophosphorothioate, Rp-isomer, N-benzyl-2-phenylethan-1-aminium salt]

Compound 188 loading (w/w) ([2]; target drug loading 30%): 3%
Structure (SMILES): Cc1ccc(-c2cn3c(=O)c4nc(Br)n([C@@H]5O[C@@H]6CO[P@@](=O)(S)O[C@H]6[C@H]5O)c4nc3[nH]2)cc1 [Compound 188-Ca]

Structure (SMILES): O=c1c2nc(Br)n([C@@H]3O[C@@H]4CO[P@@](=O)(S)O[C@H]4[C@H]3O)c2nc2[nH]c(-c3ccccc3)cn12 [Compound 221-FA]
Release duration ([3]; target drug loading 10%): 22 days
Compound 221 loading (w/w) [4]: 10.5%
Compound 221 loading (w/w) ([5]; target drug loading 10%): 1.2%
Release duration [6]: 26 days

Structure (SMILES): O=c1c2nc(Br)n([C@@H]3O[C@@H]4CO[P@@](O)(=S)O[C@H]4[C@H]3O)c2nc2[nH]c(-c3ccccc3)cn12 [Rp-8-Br-PET-cGMPS]
efficacy / agonistic properties [7]: suboptimal efficacies or even partially agonistic properties
photoreceptor cell death, % of untreated at 50 µM ([8]; TUNEL, untreated = 1.0, n = 8, read-out: effect ratio of treated/untreated specimens (photoreceptor cell death)): ~78%
inhibition at 50 µM ([8]; vs untreated, read-out: reduction of photoreceptor cell death): > 20%

Structure (SMILES): O=c1c2nc(Br)n([C@@H]3O[C@@H]4CO[P@@](=O)(S)O[C@H]4[C@H]3O)c2nc2[nH]c(-c3ccccc3)cn12 [Compound 221-Ca]
Compound 221 loading (w/w) [4]: 30.0%
Release duration [6]: 40 days

Structure (SMILES): O=c1c2nc(Br)n([C@@H]3O[C@@H]4CO[P@@](=O)(S)O[C@H]4[C@H]3O)c2nc2[nH]c(-c3ccccc3)cn12 [Compound 221-Na]
Compound 221 loading (w/w) [4]: 17.4%
Release duration [6]: 14 days

Structure (SMILES): Nc1nc2c(nc(Br)n2[C@@H]2O[C@@H]3COP(O)(=S)O[C@H]3[C@H]2O)c(=O)[nH]1 (stereo partly drawn) [Rp-8-Br-cGMPS]
protection for rd1 and rd2 photoreceptors [9]: some protection
protection for rd1 and rd2 photoreceptors [10]: some protection

Structure (SMILES): O=c1c2nc(Br)n([C@@H]3O[C@@H]4CO[P@@](=O)(S)O[C@H]4[C@H]3O)c2nc2[nH]c(-c3ccccc3)cn12 [Compound 221-BEZ, 8-bromo-(β-phenyl-1,N^2-etheno)guanosine-3′,5′-cyclic monophosphorothioate, Rp-isomer which is N-benzyl-2-(benzylamino)ethan-1-aminium salt]
Release duration ([3]; target drug loading 30%): 35 days
Compound 221 loading (w/w) [4]: 30.0%
Compound 221 loading (w/w) ([5]; target drug loading 30%): 14.0%
Release duration [6]: 40 days
